In patent US6492167B2, “Ubiquitous potassium-channel proteins and their genes” (JCR Pharmaceuticals Co., Ltd., priority 1995, dated 2002):
One block for each compound: values may come before it.

Experiments:
ruKATP-1 [1] = target: T1, ruKATP-1 (Rattus norvegicus, UniProt Q63664); assay: Single-channel analysis of HEK 239 cells having ruKATP-1 expressed (inside-out mode); type: cell-based; conditions: for uKATP-1 channel activity (state of channel): inside-out mode
T1 construct: The expression plasmid (pCMV6b) carrying a full-length ruKATP-1 coding cDNA was transfected into HEK 239 cells; expressed in transfected cells; host or cells: HEK 239 (sic) cells, plasmid pCMV6b, Lipofectamine
T1 sequence (Q63664 1-424): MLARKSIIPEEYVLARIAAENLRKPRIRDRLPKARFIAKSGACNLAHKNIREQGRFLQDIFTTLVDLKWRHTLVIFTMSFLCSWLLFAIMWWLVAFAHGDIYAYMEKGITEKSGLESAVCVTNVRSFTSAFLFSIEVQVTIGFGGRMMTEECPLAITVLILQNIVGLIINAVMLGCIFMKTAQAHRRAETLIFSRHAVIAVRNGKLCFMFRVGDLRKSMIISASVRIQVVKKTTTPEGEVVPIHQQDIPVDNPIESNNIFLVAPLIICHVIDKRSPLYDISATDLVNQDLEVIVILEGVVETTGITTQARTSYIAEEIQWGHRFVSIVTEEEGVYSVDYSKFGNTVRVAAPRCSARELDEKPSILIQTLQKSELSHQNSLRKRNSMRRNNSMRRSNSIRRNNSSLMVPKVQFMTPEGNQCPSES
Protocol: […] cells were cultured in minimum essential Eagle's medium supplemented with 10% of horse serum. The expression plasmid (pCMV6b) carrying a full-length ruKATP-1 coding cDNA was transfected into […] cells with use of Lipofectamine to prepare transformed HEK 293 cells. The transformed cells produced in this. manner were subjected to single channel analysis, with the results being shown in FIGS. 8A and 8B.
FIG. 7 illustrates effects of ATP on the uKATP-1 channel activity as observed in the inside-out mode.

ruKATP-1 [2] = target: T1, ruKATP-1; assay: Electrophysiological analysis of Xenopus oocytes injected with ruKATP-1 cRNA; type: cell-based
Protocol: A 20 ng quantity of cRNA synthesized in vitro from plasmid pGEM11Z containing a full-length ruKATP-1 cDNA with the RNA polymerase after being linearized through treatment with a restriction enzyme Not1 was injected into Xenopus oocytes, followed by electrophysiological analysis 2 or 3 days later. (see FIG. 7). As is illustrated in FIGS. 7A and 7B, there was observed a K^+ electric current showing weak inward rectification. The K^+ electric current was suppressed by adding Ba^2+ in the exracellular fluid.

uKATP-1 channel activity (state of channel) (ruKATP-1 [1]; 1 μM of ATP added inside the cellular membrane): open
uKATP-1 channel activity (state of channel) (ruKATP-1 [1]; addition of ATP): closed completely
Structure (SMILES): Nc1ncnc2c1ncn2[C@@H]1O[C@H](COP(=O)(O)OP(=O)(O)OP(=O)(O)O)[C@@H](O)[C@H]1O [ATP]

Structure (SMILES): [Ba+2] [Ba^2+]
inward rectification (inward current) of oocytes injected with ruKATP-1 cRNA (ruKATP-1 [2]; 300 μM Ba2+ added to the extracellular fluid, 45 mM [K+] extracellular fluid): blocked
K+ electric current showing weak inward rectification (ruKATP-1 [2]; Ba2+ added in the extracellular fluid, concentration not given): suppressed

outward electric current flowing through the channel (ruKATP-1 [1]; intracellular Mg2+, transformed HEK cells): suppressed
Structure (SMILES): [Mg+2] [Mg^2+]
